Test results reported in PubChem BioAssay AID1259407 (Chemical Carcinogenesis Research Information System (CCRIS), 2018).
Activity calls are given as the source filed them. No rule for the calls is given here.

Tested on: CCRIS mutagenicity, Ames/micronucleus/aberration tests
Assay: CCRIS mutagenicity studies

O=[N+]([O-])c1ccc(Nc2ccc(Nc3ccccc3)c(S(=O)(=O)O)c2)c([N+](=O)[O-])c1
mutagenic call (Test System: AMES SALMONELLA TYPHIMURIUM, Strain/Indicator: TA97, Metabolic Activation: HAMSTER, LIVER, S-9, AROCLOR 1254, Method: PREINCUBATION): active; positive | mutagenic call (Test System: AMES SALMONELLA TYPHIMURIUM, Strain/Indicator: TA97, Metabolic Activation: NONE, Method: PREINCUBATION): active; positive | mutagenic call (Test System: AMES SALMONELLA TYPHIMURIUM, Strain/Indicator: TA97, Metabolic Activation: RAT, LIVER, S-9, AROCLOR 1254, Method: PREINCUBATION): active; positive | mutagenic call (Test System: AMES SALMONELLA TYPHIMURIUM, Strain/Indicator: TA98, Metabolic Activation: HAMSTER, LIVER, S-9, AROCLOR 1254, Method: PREINCUBATION): active; positive | mutagenic call (Test System: AMES SALMONELLA TYPHIMURIUM, Strain/Indicator: TA98, Metabolic Activation: NONE, Method: PREINCUBATION): active; positive | mutagenic call (Test System: AMES SALMONELLA TYPHIMURIUM, Strain/Indicator: TA98, Metabolic Activation: RAT, LIVER, S-9, AROCLOR 1254, Method: PREINCUBATION): active; positive | mutagenic call (Test System: AMES SALMONELLA TYPHIMURIUM, Strain/Indicator: TA100, Metabolic Activation: HAMSTER, LIVER, S-9, AROCLOR 1254, Method: PREINCUBATION): active; positive | mutagenic call (Test System: AMES SALMONELLA TYPHIMURIUM, Strain/Indicator: TA100, Metabolic Activation: NONE, Method: PREINCUBATION): active; positive | mutagenic call (Test System: AMES SALMONELLA TYPHIMURIUM, Strain/Indicator: TA100, Metabolic Activation: RAT, LIVER, S-9, AROCLOR 1254, Method: PREINCUBATION): active; positive | mutagenic call (Test System: AMES SALMONELLA TYPHIMURIUM, Strain/Indicator: TA1535, Metabolic Activation: HAMSTER, LIVER, S-9, AROCLOR 1254, Method: PREINCUBATION): inactive; negative | mutagenic call (Test System: AMES SALMONELLA TYPHIMURIUM, Strain/Indicator: TA1535, Metabolic Activation: NONE, Method: PREINCUBATION): inactive; negative | mutagenic call (Test System: AMES SALMONELLA TYPHIMURIUM, Strain/Indicator: TA1535, Metabolic Activation: RAT, LIVER, S-9, AROCLOR 1254, Method: PREINCUBATION): inactive; negative

O=C(N=c1sn(C(=O)c2ccc(Cl)c(Cl)c2)c2ccc([N+](=O)[O-])cc12)c1ccc(Cl)c(Cl)c1
mutagenic call (Test System: AMES SALMONELLA TYPHIMURIUM, Strain/Indicator: TA100, Metabolic Activation: S-9, Method: STANDARD PLATE): active; positive

O=C(O)[C@@H]1CS[C@H](c2ccccc2O)N1C(=O)CCSSCCC(=O)N1[C@@H](c2ccccc2O)SC[C@H]1C(=O)O
mutagenic call (Test System: AMES SALMONELLA TYPHIMURIUM, Strain/Indicator: TA98, Metabolic Activation: NONE, Method: STANDARD PLATE): inactive; negative | mutagenic call (Test System: AMES SALMONELLA TYPHIMURIUM, Strain/Indicator: TA100, Metabolic Activation: NONE, Method: STANDARD PLATE): inactive; negative | mutagenic call (Test System: AMES SALMONELLA TYPHIMURIUM, Strain/Indicator: TA1535, Metabolic Activation: NONE, Method: STANDARD PLATE): inactive; negative | mutagenic call (Test System: AMES SALMONELLA TYPHIMURIUM, Strain/Indicator: TA1537, Metabolic Activation: NONE, Method: STANDARD PLATE): inactive; negative | mutagenic call (Test System: AMES SALMONELLA TYPHIMURIUM, Strain/Indicator: TA1538, Metabolic Activation: NONE, Method: STANDARD PLATE): inactive; negative | mutagenic call (Test System: E. COLI, Strain/Indicator: WP2, Metabolic Activation: NONE, Method: STANDARD PLATE): inactive; negative | mutagenic call (Test System: E. COLI, Strain/Indicator: WP2 UVRA, Metabolic Activation: NONE, Method: STANDARD PLATE): inactive; negative
